Data from patent US7875601B2, “Cancer treatment with epothilones” (Novartis AG, priority 1998, dated 2011).
Values joined by “and” are separate entries in the source; they are usually repeats but may differ in a detail not shown here. Equal entries are not always repeated. “Also recorded” adds a separate entry of the source. Marks after values point to notes of the source that are not given here.

Experiments:
[1] = tested on: ZR-75-1 (Breast); assay: Antiproliferative assay, ZR-75-1; type: cell-based, human; conditions: ZR-75-1, 5 d exposure, mean ± SD, n = 3; read-out: IC50 for growth inhibition
Description: (§1) Antiproliferative assays are performed as previously described (Int. J. Cancer 43, 851-6 (1989)). Briefly, cells are seeded at 1.5×10^3 cells/well into 96-well microtiter plates and incubated overnight. Compounds are added in serial dilutions on day 1. The plates are then incubated for an additional 2 to 5 days, allowing for at least one cell doubling (cell line dependent), after which the cells are fixed with 3.3% v/v glutaraldehyde, washed with water and stained with 0.05% w/v methylene blue. After washing, the dye is eluted with 3% v/v HCl and the optical density measured at 665 nm with a SpectraMax 340 (Bucherer, Basel, Switzerland). IC50 values are determined by a computerized system (SoftPro, Bucherer, Basel, Switzerland) using the formula (OD test−OD start)/(OD control−OD start)×100. IC50 is defined as the drug concentration which leads to 50% of cells per well compared to control cultures (100%) at the end of incubation period.

[2] = tested on: A549 non-small cell lung tumors; assay: Antitumor activity on A549 tumors, once weekly dosing (Example 8); type: in vivo, outbred athymic (nu/nu) mice; conditions: for body weight loss: 3 weeks experiment, reversible
Source text: Materials and methods pertaining to the human tumor xenograft model are as previously described.
Measurements are taken for an additional 2 weeks after completion of the regular 3 weeks experiments, to evaluate reversibility of drug-induced body weight loss, and sustainability of antitumor effects.

[3] = tested on: human HCT-15 colon carcinoma; assay: Antitumor effect against s.c. transplanted HCT-15 tumors; type: in vivo, female BALB/c nude mice
Source text: Human colorectal adenocarcinoma cell line HCT-15 (ATCC CCL 225) is from the American Type Culture Collection (Rockville, Md., USA), and the cells are cultivated in vitro as recommended by the supplier. HCT-15 is an epithelial-like cell line. (Cancer Res. 39: 1020-25 [1979]) that is multi-drug resistant by virtue of over-expression of P-glycoprotein (P-gp, gp170, MDR-1;Anticancer Res. 11: 1309-12 [1991]; J. Biol. Chem. 264: 18031-40 [1989]; Int. J. Cancer 1991; 49: 696-703 [1991]) and glutathione-dependent resistance mechanisms (Int. J. Cancer 1991; 49: 688-95 [1991]).
(§2) Female or male BALB/c nu/nu (nude) mice are kept under sterile conditions (10 to 12 mice per Type III cage) with free access to food and water. Mice weigh between 20 and 25 grams at the time of tumor implantation. Tumors are established by subcutaneous injection of cells (minimum 2×10^6 cells in 100 μl PBS or medium) in carrier mice (4-8 mice per cell line). The resulting tumors are serially passaged for a minimum of three consecutive transplantations prior to start of treatment. Tumor fragments (approx. 25 mg) are implanted s.c. into the left flank of animals with a 13-gauge trocar needle while the mice are exposed to Forene (Abbott, Switzerland) anesthesia.
(§3) Tumor growth and body weights are monitored once or twice weekly. All treatments are administered intravenously (i.v.) and are initiated when a mean tumor volume of approximately 100 to 250 mm^3 is attained, depending upon the tumor type. Tumor volumes are determined using the formula […] (see Cancer Chemother. Pharmacol. 24:148-154, [1989]). Treatments with epothilone B vary the dose and the frequency of administration. Comparator agents are administered according to previously determined optimal treatment regimens. In addition to presenting changes in tumor volumes over the course of treatment, antitumor activity is expressed as T/C % (mean increase of tumor volumes of treated animals divided by the mean increase of tumor volumes of control animals multiplied by 100). Tumor. regression (%) represents the smallest mean tumor volume compared to the mean tumor volume at the start of treatment, according to the formula Regression (%)=(1−Vend/Vstart)×100(Vend=final mean tumor volume, Vstart=mean tumor volume at the start of treatment. Any animals in which the tumor has reached a size exceeding approximately 1.5 to 2.5 cm^3 are sacrificed. Details can be found below.
Tumor volumes are used as the primary indicator of activity of antitumor agents used alone or in combination, and changes in body weights are measured as an indicator of treatment tolerability.

[4] = tested on: A549 (Lung); assay: Antiproliferative assay, A549; type: cell-based, human; conditions: A549, 5 d exposure, mean ± SD, n = 3 (epothilone B n = 2); read-out: IC50 for growth inhibition
Description: as §1

[5] = tested on: human estrogen-dependent ZR-75-1 breast tumors; assay: Antitumor effect against s.c. transplanted ZR-75-1 breast tumors; type: in vivo, female BALB/c nude mice
Description: as §2, §3

[6] = 1 mg/kg i.v. once weekly for 3 weeks, day 34
[7] = 1 mg/kg once weekly for 3 weeks, extended observation, day 48
[8] = 2 mg/kg i.v. once weekly for 3 weeks, day 34
[9] = 2 mg/kg once weekly for 3 weeks, extended observation, day 48
[10] = 3 mg/kg i.v. once weekly for 3 weeks, day 34
[11] = 3 mg/kg once weekly for 3 weeks, extended observation, day 48
[12] = 3.5 mg/kg i.v. once weekly for 3 weeks, day 34
[13] = 3.5 mg/kg once weekly for 3 weeks, extended observation, day 48
[14] = 4 mg/kg, i.v. once on day 14, mean ± SEM
[15] = 1 mg/kg, i.v. every 7 days, day 47
[16] = 2 mg/kg, i.v. every 7 days, day 47
[17] = 4 mg/kg, i.v. every 7 days, day 47
[18] = 4 mg/kg, i.v. every 14 days, day 47

`C/C(=C\c1csc(C)n1)[C@@H]1C[C@@H]2O[C@]2(C)CCC[C@H](C)[C@H](O)[C@@H](C)C(=O)C(C)(C)[C@@H](O)CC(=O)O1` [epothilone B] was tested, and the IC50 [1] was 640 ± 420 pM, the “% T/C” value [2, 6] was 74% and 74^*,** % and the Dead/Total [2, 6] was 0/8. For the same compound, the “Delta % Body Weight” value [2, 6] was “+10.8%”, the “Delta Mean Tumor Vol. (mm^3 ± SEM)” value [2, 6] was 195 ± 21 mm^3 and the Dead/Total [2, 7] was 0/8. The “Delta % Body Weight” value [2, 7] was “+12.6%”, the “Delta Mean Tumor Vol. (mm^3 ± SEM)” value [2, 7] was 339 ± 24 mm^3 and the “% T/C” value ([2]; 1 mg/kg once weekly for 3 weeks, extended observation, day 48 (week 5)) was 72%. The “% T/C” value [2, 8] was 43% and 43*^,** %, the Dead/Total [2, 8] was 0/8 and the “Delta % Body Weight” value [2, 8] was “+0.9%”. The “Delta Mean Tumor Vol. (mm^3 ± SEM)” value [2, 8] was 113 ± 21 mm^3, the Dead/Total [2, 9] was 0/8 and the “Delta % Body Weight” value [2, 9] was “+13.5%”. For the same compound, the “Delta Mean Tumor Vol. (mm^3 ± SEM)” value [2, 9] was 232 ± 39 mm^3, the “% T/C” value ([2]; 2 mg/kg once weekly for 3 weeks, extended observation, day 48 (week 5)) was 49* % and the “% T/C” value [2, 10] was 23% and 23*^,** %. For the same compound, the Dead/Total [2, 10] was 0/8, the “Delta % Body Weight” value [2, 10] was −16.4% and the “Delta Mean Tumor Vol. (mm^3 ± SEM)” value [2, 10] was 60 ± 22 mm^3. For the same compound, the Dead/Total [2, 11] was 0/8, the “Delta % Body Weight” value [2, 11] was “+13.2%” and the “Delta Mean Tumor Vol. (mm^3 ± SEM)” value [2, 11] was 75 ± 25 mm^3. The “% T/C” value ([2]; 3 mg/kg once weekly for 3 weeks, extended observation, day 48 (week 5)) was 16*^,** %, the body weight loss ([2]; 3 mg/kg once weekly) was “approximately 15%” and the “% T/C” value [2, 12] was 15% and 15*^,** %. For the same compound, the Dead/Total [2, 12] was 0/8, the “Delta % Body Weight” value [2, 12] was −14.6% and the “Delta Mean Tumor Vol. (mm^3 ± SEM)” value [2, 12] was 40 ± 15 mm^3. For the same compound, the Dead/Total [2, 13] was 0/8, the “Delta % Body Weight” value [2, 13] was “+9.7%” and the “Delta Mean Tumor Vol. (mm^3 ± SEM)” value [2, 13] was 58 ± 25 mm^3. For the same compound, the “% T/C” value ([2]; 3.5 mg/kg once weekly for 3 weeks, extended observation, day 48 (week 5)) was 12*^,** %, the body weight loss ([2]; 3.5 mg/kg once weekly) was “approximately 15%” and the Regression ([3]; 4 mg/kg, i.v. once on day 14) was −61%. For the same compound, the “Survival (No. alive/total)” value ([3]; 4 mg/kg, i.v. once on day 14) was 8/8, the T/C ([3]; 4 mg/kg, i.v. once on day 14) was “tumor regressions; also recorded: Regression” and the “% Body Weight Change” value [3, 14] was 2 ± 2%. For the same compound, the “D Body Weight” value [3, 14] was 0.4 ± 0.3 g, the “D Tumor Volume (mm^3)” value [3, 14] was −97 ± 25 mm^3 and the “mortalities due to treatment” value ([3]; single 4 mg/kg dose) was “No mortalities due to treatment”. For the same compound, the IC50 [4] was 190 ± 120 pM, the “% Body Weight Change” value [5, 15] was 2 ± 5% and the Regression [5, 15] was “none”. The “Survival (No. alive/total)” value [5, 15] was 4/6, the “T/C (%)” value [5, 15] was 86% and the “Δ Body Weight” value [5, 15] was 0.3 ± 1.2 g. For the same compound, the “Δ Tumor Volume (mm^3)” value [5, 15] was 393 ± 135 mm^3, the “% Body Weight Change” value [5, 16] was −14 ± 6% and the Regression [5, 16] was “none”. For the same compound, the “Survival (No. alive/total)” value [5, 16] was 5/6, the “T/C (%)” value [5, 16] was 40% and the “Δ Body Weight” value [5, 16] was -3.5 ± 1.6 g. For the same compound, the “Δ Tumor Volume (mm^3)” value [5, 16] was 227 ± 76 mm^3, the “T/C (%)” value ([5]; 4 mg/kg, i.v. every 7 days (days 19, 26 and 33), day 47) was 1% and the “% Body Weight Change” value [5, 17] was −5 ± 3%. The “Survival (No. alive/total)” value [5, 17] was 3/6, the “Δ Body Weight” value [5, 17] was -1.2 ± 0.6 g and the “Δ Tumor Volume (mm^3)” value [5, 17] was 29 ± 16 mm^3. For the same compound, the Regression ([5]; 4 mg/kg, i.v. every 7 days, transient) was −8%, the “T/C (%)” value ([5]; 4 mg/kg, i.v. every 14 days (days 19 and 33), day 47) was 46% and the “% Body Weight Change” value [5, 18] was −7 ± 5%. For the same compound, the Regression [5, 18] was “none”, the “Survival (No. alive/total)” value [5, 18] was 4/6 and the “Δ Body Weight” value [5, 18] was -1.6 ± 1.1 g. The “Δ Tumor Volume (mm^3)” value [5, 18] was 208 ± 86 mm^3.
